Laboratory results published in patent US11291674B2 (CALITHERA BIOSCIENCES, INC., priority 2016, dated 2022).

Tests used:
[1] = tested on: LLC tumors; test: LLC syngeneic tumor model; format: in vivo, mouse
Text: (§1) Murine tumor studies. Female wild-type C57BL/6 and Balb/c mice (5-6 weeks old) were purchased from Charles River Laboratories (Hollister, Calif.). Severe combined immune deficient (SCID, B6.CB17-PrkdcSCID/SzJ) and Pmel-1 TCR transgenic (B6.Cg-Thyla/Cy Tg(TcraTcrb)8Rest/J) mice (5-6 weeks old) were purchased from The Jackson Laboratory (Bar Harbor, Me.). All mice were housed and treated in accordance with Institutional Animal Care and Use Committee guidelines. For the 4T1 tumor model, 1×10^5 cells were injected orthotopically into the mammary fat pad; for all other tumor models, 1×10^6 cells were injected subcutaneously (s.c.) in the right flank. […] Control groups received vehicle (water) twice daily by gavage. Tumor volume measured by digital caliper (length×width×width/2) and body weight were recorded three times weekly. Animals were euthanized when tumors necrotized or volumes reached 2000 mm^3. Anti-PD-L1 antibody (5 mg/kg, clone 10F.9G2, BioXCell, West Lebanon, N.H.) was injected intraperitoneally (i.p.) on days 5, 7, 9, 11, 13, and 15 for the CT26 model. Gemcitabine (Selleckchem, Houston, Tex.) was dosed 50 mg/kg i.p. on days 10 and 16 for the CT26 model or 60 mg/kg i.p. on days 6 and 10 for the LLC model. For CD8^+ cell depletion, mice were injected i.p. with anti-CD8 antibody (25 mg/kg, clone 2.43, BioXCell) on days −1, 0, +5, and +10. For NK cell depletion, mice were injected i.p. with anti-NK1.1 antibody (25 mg/kg, clone PK136, BioXCell) in the LLC and B16 models or with anti-Asialo GM1 sera (20 μL, Wako Chemicals, Richmond, Va.) in the CT26 model, per the same schedule as anti-CD8.
Tumor dissociation and flow cytometry. […] Excised tumors were placed in RPMI-1640 containing 5% FBS on ice, minced with a razor blade, and dissociated in RPMI-1640 supplemented with mouse tumor dissociation enzymes (Miltenyi Biotec, Bergisch Gladbach, Germany) on a GentleMACS Octo Dissociator With Heat (Miltenyi Biotec) according to the manufacturer's instructions. Dissociated tumors were strained through 70 μm nylon mesh, washed with cold PBS containing 2% FBS, blocked with anti-CD16/CD32 (Fc block antibody, eBioscience), and stained for cell surface antigens. For B16 and 4T1 tumors, washed dissociated tumor cells were incubated with Dead Cell Removal MicroBeads (Miltenyi Biotec) and applied to a magnetic column prior to staining. For intracellular staining, cells were fixed and permeabilized using buffers purchased from R&D Systems or eBioscience for cytoplasmic or nuclear antigens, respectively. All tumor flow experiments were acquired on an Attune N×T flow cytometer and analyzed with FlowJo software version 10 (Ashland, Oreg.), using fluorescence-minus-one controls for gating and single-stained OneComp eBeads (eBioscience) to set compensation matrices.
Gene expression analysis. […] RNA was extracted for gene expression analysis and transcripts were quantified by NanoString Technologies (Seattle, Wash.).
Cytokine analysis. […] Tumors were homogenized in 50 mM Tris-HCl buffer containing 2 mM EDTA, pH 7.4 and protease inhibitors. The homogenate was centrifuged and the supernatant was collected and re-frozen. Cytokines in the supernatant were quantified by Myriad Rules Based Medicine (Austin, Tex.).

[2] = tested on: B16 tumors; test: B16 syngeneic tumor model; format: in vivo
Text: as §1
Tumor dissociation and flow cytometry. […] All tumor flow experiments were acquired on an Attune N×T flow cytometer and analyzed with FlowJo software version 10 (Ashland, Oreg.), using fluorescence-minus-one controls for gating and single-stained OneComp eBeads (eBioscience) to set compensation matrices.

[3] = tested on: LLC tumors; test: LLC tumors in SCID mice; format: in vivo, mouse; conditions: 100 mg/kg PO twice daily
Protocol: Tumors from LLC studies were analyzed on study day 13 (CD8^+ cell depletion) or study day 14 (NK cell depletion). (****P<0.0001; ***P<0.001; **P<0.01).
as §1, with “For CD8^+ cell depletion, mice were injected i.p. with anti-CD8 antibody (25 mg/kg, clone 2.43, BioXCell) on days −1, 0, +5, and +10. For NK cell depletion, mice were injected i.p. with anti-NK1.1 antibody (25 mg/kg, clone PK136, BioXCell) in the LLC and B16 models or with anti-Asialo GM1 sera (20 μL, Wako Chemicals, Richmond, Va.) in the CT26 model, per the same schedule as anti-CD8.” left out

[4] = tested on: B16.F10 tumor; test: Example 1: arginase inhibitor with adoptive immunotherapy, B16.F10 tumors; format: in vivo, mouse; conditions: 100 mg/kg twice a day, vs adoptive T cell therapy only; survival P value 0.0137
Protocol: In order to test the effect of arginase inhibitors and adoptive immunotherapy on cancer progression, mice were inoculated with B16.F10 cells to generate a tumor. Approximately 1×10^6 cells were implanted in C57.Bl/6 mice. Mice were then treated with non-myeloablative chemotherapy (Cyclophosphamide 250 mg/kg and Fludarabine 50 mg/kg). Cyclophosphamide and Fludarabine were dosed via intraperitoneal injection on day 7 (FIG. 1A, orange arrow). Pme1-1 CD8 T cells (1×10^6) were intravenously transferred on day 8 (FIG. 1A, blue arrow). Recombinant human IL-2 (200,000 UI) was dosed via intraperitoneal injection twice a day on days 8, 9, 10 in mice receiving adoptive immunotherapy. […] Survival curves can be seen in FIG. 1C. P value is 0.0137, and was calculated by Mantel-Cox test. (N=9-10 per group).

[5] = 100 mg/kg BID, study day 14, flow cytometry

C[C@H](N)C(=O)N1C[C@H](CCCB(O)O)[C@](N)(C(=O)O)C1 [arginase inhibitor]
Tumor growth, single agent ([1]; 100 mg/kg BID PO): significantly inhibited the growth | Transcripts of interferon-responsive genes in tumors vs vehicle ([1]; 100 mg/kg BID, Nanostring): increases | CD8+ T cells in the tumor vs vehicle [1, 5]: increase | CD68+ macrophages in the tumor vs vehicle [1, 5]: decrease | Effect of depletion of CD8+ cells on efficacy ([1]; 100 mg/kg twice daily, anti-CD8): smaller effect | Efficacy after depletion of NK cells ([1]; 100 mg/kg twice daily, anti-NK1.1): loss of efficacy | Inflammatory cytokines in tumors vs vehicle ([1]; 200 mg/kg BID, Luminex): increases | Tumor growth inhibition, combination with gemcitabine ([1]; gemcitabine 60 mg/kg i.p. days 6 and 10): significant increase in tumor growth inhibition | Tumor growth, single agent ([2]; 100 mg/kg BID PO): significantly inhibited the growth | Tumor-infiltrating activated CD25+ CD8+ cytotoxic T cells vs vehicle ([2]; 100 mg/kg BID, study day 9, flow cytometry): increase | Efficacy after depletion of either CD8+ cells or NK cells ([2]; 100 mg/kg twice daily, depleting antibodies): blocked the efficacy | Efficacy on LLC tumor growth in the SCID background [3]: abrogated | Tumor volume over 25 days, combination with adoptive T cell therapy [4]: slower tumor progression
